Results published in patent US20100095396A1, “METHOD FOR INCREASING THE DRY BIOMASS OF PLANTS” (priority 2006, published 2010).

Assays:
[1] = system: Corn; assay: Increase of the dry biomass of corn plants after seed treatment; assay type: in vivo; settings: harvested 37 days after emergence, dried at 110° C., free disease conditions
Excerpt: (§1) Treatment with fipronil or fipronil+alpha-cypermethrin under free disease conditions
(§2) Corn was cultivated under customary conditions at Campinas (Brazil) in 2005/2006. A part of the seeds of the test plants had beforehand been treated with fipronil. Another part of the seeds of the plants had beforehand been treated with a mixture of fipronil and alpha-cypermethrin. 37 days after the emergence of the plants, the plants and their roots were harvested. The leaves and the roots were completely dried in an oven at 110° C. and then weighed.

[2] = system: Soybean; assay: Increase of the dry biomass of soybean plants after seed treatment; assay type: in vivo; settings: harvested 35 days after emergence, dried at 110° C., free disease conditions
Excerpt: as §1
as §2, with “Soybean” for “Corn”, “35” for “37”

N#Cc1nn(-c2c(Cl)cc(C(F)(F)F)cc2Cl)c(N)c1[S+]([O-])C(F)(F)F (stereo not drawn) [Fipronil, 5-amino-1-(2,6-dichloro-α,α,α-trifluoro-p-tolyl)-4-trifluoromethylsulfinylpyrazole-3-carbonitrile]
Dry weight leaves [1]: 23.38 | Dry weight roots [1]: 41.27 | Dry weight leaves [2]: 13.15 | Dry weight roots [2]: 15.6
